In ChEMBL document CHEMBL3832025, “DailyMed|setid=d3417226-1f42-40cd-82ac-bc31ddf79b97 | OFLOXACIN - ofloxacin tablet, film coated|PD-Rx Pharmaceuticals, Inc”:
Several values for one entry are separate records, joined by “and”; a condition that tells them apart may be missing. Equal values may be shown once.

Assays:
Type in all cases: ADME, organism-based
[1] = test system: Homo sapiens; assay: (§1) Pharmcokinetic parameters for Ofloxacin following single oral dose administration of Ofloxacin to healthy male volunteers, body mass 70 to 80 kg.; parameters: dose 300 mg, dose 200 mg, dose 400 mg, route oral; settings: in vivo, po, dosed compound id 33, dosed compound name OFLOXACIN, gender male, regimen Single dose, tissue Serum
[2] = as §1; parameters: dose 300 mg, dose 200 mg, dose 400 mg, route oral; settings: human, in vivo, dosed compound id 33, dosed compound name OFLOXACIN, regimen Single dose
[3] = test system: Homo sapiens; assay: (§2) Steady-state pharmacokinetic parameters for Ofloxacin following multiple oral and intravenous (IV) doses of Ofloxacin to healthy 70 to 80 kg male volunteers.; parameters: dose 200 mg, dose 400 mg, dose 300 mg, route oral, route iv; settings: in vivo, dosed compound id 33, dosed compound name OFLOXACIN, gender male, regimen Multiple dose, tissue Serum
[4] = as §2; parameters: dose 200 mg, dose 400 mg, dose 300 mg, route oral, route iv; settings: human, in vivo, dosed compound id 33, dosed compound name OFLOXACIN, regimen Multiple dose; for AUC: gender male, tissue Serum
[5] = male, route oral, tissue Plasma

- Cmax [1]: 2400 ng/mL and 2900 ng/mL
- Cmax ([2]; po, gender male, tissue Serum): 1500 ng/mL
- Tmax [2, 5]: 1 to 2 h
- bioavailability [2, 5]: 98%
- AUC(0 to 12) ss ([3]; study dosing duration 60 minutes): 43500 ng·h/mL
- Cmax ss ([3]; po): 2200 ng/mL and 3600 ng/mL and 4600 ng/mL
- AUC ([4]; read-out: AUC(0 to 12) ss): 41200 ng·h/mL
- AUC ([4]; read-out: AUC(0 to inf) ss): 61000 ng·h/mL
- half-life ([4]; male, route oral, tissue Plasma, read-out: t1/2 ss): 4 to 5 h
Structure (SMILES): CC1COc2c(N3CCN(C)CC3)c(F)cc3c(=O)c(C(=O)O)cn1c23 (stereo not given) [OFLOXACIN]
- AUC(0 to inf) [1]: 14100 ng·h/mL and 21200 ng·h/mL and 31400 ng·h/mL
